According to patent US8465985B2, “Fluorescent probe” (The University of Tokyo, priority 2007, dated 2013):

Assay: Spectral change of Compound 5 in association with pH change (absorption and fluorescence spectra)
Type: physicochemical
Description: For all the samples, measurements were performed in a 1:1 mixed solvent of 100 mM sodium phosphate buffered solution and acetonitrile (containing 0.1% or less of DMSO as an auxiliary solvent).
In the case of Compound 5, for example, the tricarbocyanine fluorophore is a pH-sensitive FRET receptor, the dicarbocyanine fluorophore is an FRET donor, and the compound has a property that when the nitrogen atom binding to the methine chain of the tricarbocyanine fluorophore is protonated, the peak in the excitation spectrum shifts from around 660 nm to the longer wavelength side in connection with decrease of electron donating ability. […] Namely, by dissolving Compound 5 in a test sample, performing excitation with a light of 640 nm, and measuring ratio of fluorescence intensities at 660 nm and 750 nm upon excitation, it becomes possible to detect pH by the ratio method. Compound 5 is especially useful as a pH fluorescent probe for measuring pH in live cells or live tissues, in particular, in deep part tissues, under a physiological condition.
In a 1:1 mixed solution of 100 mmol/L phosphate buffer (pH 1.2, 2.1, 3.3, 3.9, 5.0, 6.0, 6.8) and acetonitrile (containing 0.1% or less of DMSO as an auxiliary solvent), absorption spectra and fluorescence spectra (excitation wavelength: 640 nm) of Compound 5 were measured. It can be understood that with elevation of pH, the absorbance around 650 nm increased, and the absorption spectrum changed. Moreover, it can also be understood that in the fluorescence spectrum, with elevation of pH, the fluorescence intensity decreased around 660 nm, and increased around 750 nm. Therefore, pH change can be accurately measured by using the ratio method based on one-wavelength excitation/ two-wavelength fluorescence measurement. […] The fluorescence intensities at 660 nm and 750 nm linearly change from pH 4 to 6, and accordingly, pH of this range can be measured by using Compound 5.

[1] = excitation 640 nm, 1:1 phosphate buffer (pH 1.2-6.8) and acetonitrile

change of absorbance around 650 nm with elevation of pH (1:1 100 mmol/L phosphate buffer (pH 1.2-6.8) and acetonitrile): increased | change of fluorescence intensity around 660 nm with elevation of pH [1]: decreased | change of fluorescence intensity around 750 nm with elevation of pH [1]: increased | fluorescence wavelength of the tricarbocyanine fluorophore (FRET receptor) (excitation light of 640 nm, nitrogen atom not protonated): around 750 nm | fluorescence wavelength peak of the dicarbocyanine fluorophore (FRET donor) (excitation light of 640 nm, nitrogen atom protonated): around 660 nm
Compound: CN1/C(=C/C=C2\CCCC(/C=C/C3=[N+](C)c4ccccc4C3(C)C)=C2NCCCCCC(=O)N[C@H]2CC[C@H](NC(=O)CC[N+]3=C(/C=C/C=C/C=C4/N(CCC(=O)O)c5ccccc5C4(C)C)C(C)(C)c4ccccc43)CC2)C(C)(C)c2ccccc21 [Compound 5]
